Source: patent publication US11957143B2, “Highly-soluble rebaudioside D” (SUNTORY HOLDINGS LIMITED, priority 2018, dated 2024)

Assays:
Type in all cases: physicochemical
[1] = Solubility of crystals of Reb. D, amount dissolved (FIG. 6); settings: 300 mg in pure water (150 ml) at 7.5° C., stirring at 200 rpm, 0.45-um filter
Experimental: The crystals of Reb. D in the crystalline form α and the crystalline form β and a control (commercially available Reb. D in a stable form) were provided, to compare their solubilities. The crystal in the crystalline form α used was obtained by maintaining Reb. D at 50° C. for 1 hour, followed by appropriate N2 purge, and the crystal in the crystalline form β used was obtained by maintaining Reb. D at 100° C. for 1.5 hours, followed by appropriate N2 purge and then overnight cooling at normal temperature. The conditions for dissolution and sample preparation are shown below.
300 mg of Reb. D was added to pure water (150 ml) at 7.5° C., followed by stirring at 200 rpm, for dissolution.
(§1) Sample Preparation Conditions:
A 0.45-um filter was immersed in the solution for 30 seconds, and then a filtrate was obtained through the filter. 1 ml of the filtrate obtained was collected and diluted 10-fold with pure water.

[2] = Moisture content of crystalline forms (FIG. 10); settings: sample heating 130° C. in N2, trace moisture analyzer
Experimental: The “moisture content” herein means the proportion of water contained in the crystal and is the proportion (wt %) of the weight of water based on the weight of the entire crystal. The moisture content of the crystal can be determined, for example, by heating the crystal at a high temperature (for example, 130° C.) under an inert atmosphere, and calculating from the change in weight between before and after the heating. The crystal of Reb. D of the present invention preferably has a moisture content of 0.1 wt % to 2.0 wt %, more preferably 0.2 wt % to 1.2 wt %, further preferably 0.40 wt % to 0.8 wt %.
The crystals of Reb. D in the crystalline form α and the crystalline form β and the control (in a stable form) were provided, and their moisture contents were compared. […] The devices and the conditions used for measuring the moisture contents are shown below.
Devices: • Trace moisture analyzer: CA-200, manufactured by Mitsubishi Chemical Analytech Co., Ltd. • Water vaporizer: VA-200 • Reagents: AQUAMICRON AX as anolyte and AQUAMICRON CXU as catholyte • Sample heating: 130° C. in an inert gas atmosphere (gas: N2, flow rate: 300 ml/min)

[3] = Turbidity (NTU) and amount dissolved 40 minutes after dissolution (FIG. 7); settings: 90 mg in 150 ml pure water at 7.5° C., 350 rpm, 40 minutes later, versus control
Experimental: The “turbidity (NTU)” herein means the degree of turbidity when the Reb. D is dissolved in water, and the lower the turbidity means that the Reb. D is dissolved better. The turbidity can be measured by a known method, for example, using an existing absorptiometer.
Then, the solubilities were evaluated under the conditions varied. The crystal in the crystalline form α used was obtained by maintaining at 55° C. for 2 hours, followed by appropriate N2 purge and then natural cooling in vacuo. The dissolution conditions, the conditions of turbidity (NTU) measurement, and the sample preparation conditions are shown below.
90 mg of Reb. D was added to 150 ml of pure water (equivalent to 300 mg/500 ml) at 7.5° C., followed by stirring at 350 rpm for dissolution. The degree of dissolution was checked 40 minutes later.
Conditions of Turbidity (NTU) Measurement:
30 ml was collected 40 minutes later, and the turbidity (NTU) was measured. The turbidity was measured with an absorptiometer (2100AN, manufactured by Hach Company) by turbidimetry using formazin as a standard solution.
as §1
A 0.45-um filter was immersed in the solution for 6 seconds, and then a filtrate was obtained through the filter. 1 ml of the filtrate obtained was collected and diluted 10-fold with pure water.

[4] = Improvement in solubility by supplementary addition of crystal to saturated Reb. D solution (FIG. 9)
Experimental: Using the Reb. D in the crystalline form α, tests were conducted to confirm that the solubility of commercially available Reb. D was improved. […] First, commercially available Reb. D (in a stable form) was added to water to a saturated state. 24 hours later, the crystal of Reb. D in the crystalline form α was added to the saturated solution. Sampling was performed 24 hours later, 25 hours later, and 48 hours later, to check the amount of the Reb. D dissolved. […] D in the crystalline form α was added.

Structure (SMILES)	amount dissolved as compared with the control (Cont) [1]	moisture content [2]	amount dissolved [3]	turbidity (NTU) [3]	persistence of the increase in amount dissolved ([4]; 24 hours after the crystal was added to the saturated solution)	amount of Reb. D dissolved after addition of the crystal to a saturated solution of commercially available Reb. D ([4]; crystal added 24 hours after saturation with stable form)
C=C1C[C@@]23CC[C@H]4[C@@](C)(CCC[C@@]4(C)C(=O)O[C@@H]4O[C@H](CO)[C@@H](O)[C@H](O)[C@H]4O[C@@H]4O[C@H](CO)[C@@H](O)[C@H](O)[C@H]4O)[C@@H]2CC[C@]1(O[C@@H]1O[C@H](CO)[C@@H](O)[C@H](O[C@@H]2O[C@H](CO)[C@@H](O)[C@H](O)[C@H]2O)[C@H]1O[C@@H]1O[C@H](CO)[C@@H](O)[C@H](O)[C@H]1O)C3 [crystalline form β, rebaudioside D]	increased	0.37 wt %				
C=C1C[C@@]23CC[C@H]4[C@@](C)(CCC[C@@]4(C)C(=O)O[C@@H]4O[C@H](CO)[C@@H](O)[C@H](O)[C@H]4O[C@@H]4O[C@H](CO)[C@@H](O)[C@H](O)[C@H]4O)[C@@H]2CC[C@]1(O[C@@H]1O[C@H](CO)[C@@H](O)[C@H](O[C@@H]2O[C@H](CO)[C@@H](O)[C@H](O)[C@H]2O)[C@H]1O[C@@H]1O[C@H](CO)[C@@H](O)[C@H](O)[C@H]1O)C3 [crystalline form α, rebaudioside D]	increased	0.67 wt %	tended to increase	tended to be low	the increase continued	further increased
C=C1C[C@@]23CC[C@H]4[C@@](C)(CCC[C@@]4(C)C(=O)O[C@@H]4O[C@H](CO)[C@@H](O)[C@H](O)[C@H]4O[C@@H]4O[C@H](CO)[C@@H](O)[C@H](O)[C@H]4O)[C@@H]2CC[C@]1(O[C@@H]1O[C@H](CO)[C@@H](O)[C@H](O[C@@H]2O[C@H](CO)[C@@H](O)[C@H](O)[C@H]2O)[C@H]1O[C@@H]1O[C@H](CO)[C@@H](O)[C@H](O)[C@H]1O)C3 [control, rebaudioside D]		over 5 wt %				
